According to patent US6441180B1, “Tetrazolyl-phenyl actamide glucokinase activators” (Hoffmann-La Roche Inc., priority 2000, dated 2002):

Compound | melting point [°C]
Cc1nnnn1-c1ccc(C(CC2CCCC2)C(=O)Nc2ccc(Br)cn2)cc1F (stereo not drawn) [Example 2, N-(5-Bromo-pyridin-2-yl)-3-cyclopentyl-2-[3-fluoro-4-(5-methyl-tetrazol-1-yl)-phenyl]-propionamide] | 73 to 78
Cc1nnnn1-c1ccc(C(CC2CCCC2)C(=O)Nc2nccs2)cc1Cl (stereo not drawn) [Example 3, 2-[3-Chloro-4-(5-methyl-tetrazol-1-yl)-phenyl]-3-cyclopentyl-N-thiazol-2-yl-propionamide] | 190 to 193
CNC(=O)NC(=O)/C(=C/C1CCCC1)c1ccc(-n2nnnc2C)c(F)c1 [Example 22, (E)-1-{3-Cyclopentyl-2-[3-fluoro-4-(5-methyl-tetrazol-1-yl)-phenyl]-acryloyl}-3-methyl-urea] | 186 to 192
CNC(=O)NC(=O)C(CC1CCCC1)c1ccc(-n2nnnc2C)c(Cl)c1 (stereo not drawn) [Example 11, 1-{2-[3-Chloro-4-(5-methyl-tetrazol-1-yl)-phenyl]-3-cyclopentyl-propionyl}-3-methyl-urea] | 185 to 186
Cc1nnnn1-c1ccc(/C(=C\C2CCCC2)C(=O)Nc2nccs2)cc1F [Example 12, (E)-3-Cyclopentyl-2-[3-fluoro-4-(5-methyl-tetrazol-1-yl)-phenyl]-N-thiazol-2-yl-acrlamide] | 158 to 162
Cc1nnnn1-c1cc(C(CC2CCCC2)C(=O)Nc2nccs2)ccc1S(C)(=O)=O (stereo not drawn) [Example 9, 3-Cyclopentyl-2-[4-methanesulfonyl-3-(5-methyl-tetrazol-1-yl)-phenyl]-N-thiazol-2-yl-propionamide] | 148 to 154
